The source of these data is PubChem BioAssay AID1794818.

In the assay the target is Chromaffin granule amine transporter (Homo sapiens) (UniProt P54219). The assay can be described thus: SLC18A1 vesicular uptake inhibitors, dose response, FFN206 fluorescent substrate, HEK-293 overexpressing cells (AID 1794818). As to conditions: HEK-293 SLC18A1 OE, FFN206 uptake fluorescence.

SMILES strings stand for the structures. Active and inactive are the calls of the source.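 Rule for the calls: active = dose-dependent response absent in non-induced cells, with a sigmoidal fit giving a valid half-maximal concentration; inactive = the rest.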

Sequence of Chromaffin granule amine transporter (Homo sapiens) (P54219 whole entry, looked up): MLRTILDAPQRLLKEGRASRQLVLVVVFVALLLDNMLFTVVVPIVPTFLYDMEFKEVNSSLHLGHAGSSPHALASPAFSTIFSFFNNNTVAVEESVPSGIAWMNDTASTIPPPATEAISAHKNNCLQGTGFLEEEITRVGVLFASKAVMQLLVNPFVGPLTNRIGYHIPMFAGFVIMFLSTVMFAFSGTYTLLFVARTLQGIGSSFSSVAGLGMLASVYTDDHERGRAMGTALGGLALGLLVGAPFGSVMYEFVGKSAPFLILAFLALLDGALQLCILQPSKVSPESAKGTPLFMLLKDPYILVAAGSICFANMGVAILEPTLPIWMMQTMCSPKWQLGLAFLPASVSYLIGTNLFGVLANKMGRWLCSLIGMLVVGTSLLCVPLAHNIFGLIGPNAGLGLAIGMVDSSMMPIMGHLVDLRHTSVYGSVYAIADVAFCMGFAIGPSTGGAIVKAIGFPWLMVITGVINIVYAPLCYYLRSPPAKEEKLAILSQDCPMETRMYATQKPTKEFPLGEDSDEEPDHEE

In general, IC50 refers to the concentration that inhibits the measured activity by half. As to `CNc1ccc2c(CCN)cc(=O)oc2c1`, the IC50 is 2 µM.

For the compound `COC(=O)[C@H]1[C@H]2C[C@@H]3c4[nH]c5cc(OC)ccc5c4CCN3C[C@H]2C[C@@H](OC(=O)c2cc(OC)c(OC)c(OC)c2)[C@@H]1OC`, the IC50 was 0.05 µM.

On to `COc1cc2c(cc1OC)C1CC(=O)C(CC(C)C)CN1CC2` (stereo not drawn), for which the outcome was inactive.
